Experimental findings from patent US20200283728A1, “MODIFIED T CELLS AND USES THEREOF” (MUSC FOUNDATION FOR RESEARCH DEVELOPMENT, priority 2017, published 2020) are described below.

What all share (type): cell-based, mouse
The subject of assay [1] is ICOS-activated Th17 cells. The assay is described as follows: Cytokine secretion of Th17 cells three days after priming (ELISA). As to conditions: day 3 after priming. As for the experimental part: Expansion of Th17 cells with Wnt/β-catenin and PI3K inhibitors in vitro: […] splenocytes were activated with irradiated (10Gy) C57BL/6 splenocytes pulsed with […] peptide (1 μM) added at a 5:1 ratio in 24-well plates (1 mL media containing 1.5×10^6 cells/well). […] splenocytes were co-stimulated with soluble ICOS agonist (Clone 398.4A, BioLegend) and polarized toward Th17 phenotype as describe above. For in vitro expansion from day 0 of culture 10 μM Ly294002 (Cayman Chemical) or 10 μM CAL-101 (Selleckchem) and/or 60 μM indomethacin (Sigma-Aldrich) was added. Also dimethylosulfoxide 0.01% (Sigma-Aldrich) was added as a control. Th17 cultures were also supplemented with hrIL-2 (100 IU/mL) and rmIL-23 ([…]; R&D). Medium, including cytokines and inhibitors was refreshed every 2-3 days. Cytokine levels were measured using the mouse IL-17A, INF-γ, IL-2, IL-9, IL-10, IL-21, IL-22, CCL-20, GM-CSF ELISA kits (R&D) following the manufacturer's protocol.
In general terms: In an ELISA, binding on a coated surface is turned into a signal by an enzyme label.

For assay [2], the system named is ICOS-activated Th17 cells. The assay is described as follows: Cytokine production of ICOS-stimulated TRP-1 Th17 cells expanded with inhibitors (intracellular FACS). As to conditions: 8 days of expansion, vs un-treated Th17 cells. As for the experimental part: Expansion of Th17 cells with Wnt/β-catenin and PI3K inhibitors in vitro: TRP-1 splenocytes were activated with irradiated (10Gy) C57BL/6 splenocytes pulsed with TRP-1 peptide (1 μM) added at a 5:1 ratio in 24-well plates (1 mL media containing 1.5×10^6 cells/well). TRP-1 splenocytes were co-stimulated with soluble ICOS agonist (Clone 398.4A, BioLegend) and polarized toward Th17 phenotype as describe above. For in vitro expansion from day 0 of culture 10 μM Ly294002 (Cayman Chemical) or 10 μM CAL-101 (Selleckchem) and/or 60 μM indomethacin (Sigma-Aldrich) was added. Also dimethylosulfoxide 0.01% (Sigma-Aldrich) was added as a control. Th17 cultures were also supplemented with hrIL-2 (100 IU/mL) and rmIL-23 ([…]; R&D). Medium, including cytokines and inhibitors was refreshed every 2-3 days.
Surface staining of Th17 cells was performed with anti-CD4-APCCy7, anti-Vβ14-FITC (BD Biosciences) anti-CD62L-APC, anti-CD44-PerCPCy5.5, anti-CCR6-PE, anti-CD69-PECy7, anti-CCR7-PE, anti-CD27-PE, anti-CD28-PerCPCy5.5, anti-ICOS-PE and anti-CD25-PECy7/FITC (BioLegend) and viability stain (Invitrogen) on day 8. For all intracellular staining of cytokines (anti-IL-17 PerCPCy5.5, anti-IFN-γ-v450, anti-IL-2-FITC, anti-IL-21-APC, anti-IL-22-PE, anti-TNF-α-FITC; BioLegend) and transcription factors (anti-RORγt-APC, anti-cMaf-PerCPCy5.5, anti-STAT-3-PE, anti-FoxP3-FITC/PE, anti-T-bet-v450; eBiosciences), cells were stimulated for 4-5 h with 50 ng/mL PMA and 750 ng/mL ionomycin (Sigma-Aldrich). Additional antibodies used include: CD127-PECy7 clone A019D5, CD25-APCCy7 clone BC96, CD4-APCCy7 OKT4, CD45RO-APC clone UCHL1, CD62L-FITC clone DREG-56, CD8-PerCPCy5.5 clone SKI, TIM3-PE clone F38-2E2 (biolegend); CCR7-PECy7 clone CCR7, CD8-V450 clone RPA-T8, PD1-FITC clone M1H4, (BD Biosciences). Antibodies used for mouse cell analysis: CD127-PE/V450 clone A7R34, CD25-FITC clone 7D4, CD44-PerCPCy5.5/FITC clone IM7, CD69-PECy7 clone HI.2F3, CD8-PerCPCy5.5 clone 53-6.7, CD8-PECy7 clone YTS156.7.7, PD1-PerCPCy5.5 clone 29F.1A12 V[…]13-PE/APC clone MR12-3/MR12-4 (Biolegend), CD4-APCCy7 clone RM4-5, CD62L-APC clone MEL-14, KLRG1-APC/V450 clone 2F1 (BD). After 1 h, Monensin (BioLegend) was added per manufacturer's instructions. After surface staining, intracellular staining for cytokines and transcription factors was performed using Fixation and Permeabilization buffers (BioLegend) and Foxp3 Staining Buffers (eBioscience), respectively. Flow cytometry acquisition was performed on a FACSVerse or Accuri (BD Bioscience). Data were analyzed with FlowJo software (TreeStar). For experiments with sorted cells, CD8^+Vb13^+ T cells were sorted from pmel-1 cultures using Dynabeads untouched mouse CD8^+ T cell kit (Invitrogen) and a FACSAria cell sorting machine (BD Biosciences).

Assay [3] relates to ICOS activated Th17 cells. The assay is described as follows: Cytokine production of inhibitor-primed Th17 cells after secondary re-stimulation in vitro (ELISA). To be noted: vs untreated or CAL-101-treated Th17 cells. The source says:
FIG. 11: Re-stimulation of ICOS activated Th17 cells in vitro restores their cytokine production after initial inhibition of PI3K/p110δ and Wnt/β-catenin signaling pathways. ELISA analysis of cytokine production 72 hrs after secondary re-stimulation in vitro using splenocytes pulsed with trp-1 peptide (5:1 ratio), PMA/Ionomycin or B16F10 cancer cells of ICOS stimulated Th17 cells expanded with inhibitors as indicated. Data represent mean±SEM of at least three independent experiments.
Cytokine levels were measured using the mouse IL-17A, INF-γ, IL-2, IL-9, IL-10, IL-21, IL-22, CCL-20, GM-CSF ELISA kits (R&D) following the manufacturer's protocol.

Setting [4] is: CAL-101 10 μM, Indo 60 μM, Ly294002 10 μM.

Molecules are shown by their SMILES.

On to `COc1ccc2c(c1)c(CC(=O)O)c(C)n2C(=O)c1ccc(Cl)cc1` [Indo, indomethacin], for which, in assay [1], the CCL-20 secretion result was “decreased”, the GM-CSF secretion entry is given as “no difference”, the IFN-γ secretion entry is “decreased” and the IL-2 secretion entry was “no difference”. In assay [1], the IL-9 secretion result is “decreased”, the IL-10 secretion entry was “no difference”, the IL-17A secretion result was “decreased” and the IL-21 secretion entry is “no difference”. Also, in assay [2] (setting [4]), the IFN-γ production entry is recorded as “did not impact” and the IL-17A production result is on record as “did not impact”. Also, in assay [2], the IL-22 production entry is given as “increased” and the TNF-α production entry was “increased”. In addition, the “IL-2 secretion after peptide re-stimulation” value in assay [3] is given as “significantly more”.
